Assay results published in US20260092061A1, “COMPOUNDS FOR TARGETED PROTEIN DEGRADATION” (Amphista Therapeutics Limited, priority 2022, published 2026).

Molecular target: T1, BRD9 (Homo sapiens, UniProt Q9H8M2)
T1 sequence (Q9H8M2 1-597): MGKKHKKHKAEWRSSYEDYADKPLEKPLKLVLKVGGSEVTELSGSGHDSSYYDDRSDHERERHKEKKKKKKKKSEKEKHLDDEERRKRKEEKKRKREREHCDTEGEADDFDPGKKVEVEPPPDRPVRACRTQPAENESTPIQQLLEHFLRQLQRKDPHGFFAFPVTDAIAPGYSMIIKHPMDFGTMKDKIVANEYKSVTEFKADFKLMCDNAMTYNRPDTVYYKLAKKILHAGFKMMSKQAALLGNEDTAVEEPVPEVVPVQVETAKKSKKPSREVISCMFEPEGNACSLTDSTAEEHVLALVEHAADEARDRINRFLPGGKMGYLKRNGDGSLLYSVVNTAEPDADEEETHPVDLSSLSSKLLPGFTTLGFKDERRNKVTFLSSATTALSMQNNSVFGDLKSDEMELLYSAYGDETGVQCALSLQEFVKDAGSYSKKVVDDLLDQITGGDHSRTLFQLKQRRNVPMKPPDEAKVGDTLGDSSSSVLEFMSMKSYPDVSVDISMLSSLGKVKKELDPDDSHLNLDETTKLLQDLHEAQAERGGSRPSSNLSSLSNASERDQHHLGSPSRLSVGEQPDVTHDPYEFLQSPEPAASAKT
Assay: Degradation of BRD9 (IF), immunofluorescence in MV4-11 cells, 24 hours (Assay Protocol 2)
Assay type: cell-based
Design: A suspension of MV4-11 cells (ATCC CRL-9591) was prepared; host or cells: MV4-11
Conditions: BRD9 degradation; for DC50: Assay protocol 2, read-out: DC50; for Dmax: MV4-11, Assay protocol 2, read-out: Dmax
Protocol: Assay Protocol 2—Degradation of BRD9 (IF)
A suspension of MV4-11 cells (ATCC CRL-9591) was prepared in phenol red-free assay media (IMDM Thermo Scientific 21056023+10% FBS ATCC 302025) and cells were seeded at 20,000 cells per well (45 μL) in sterile black poly-d-lysine coated 384 well plates (Greiner 781948). Compounds were prepared at 1000× final concentration in DMSO, diluted 1:100 in assay media, and 5 μL compound was added to each well of the cell plate. Cells were incubated for 24 hours at 37° C. with 5% CO2. All the following incubations for immunofluorescence staining were at room temperature. 15 μL of 16% PFA was added to each well (3.7% final concentration) and the cells were fixed for 15 min then washed twice with DPBS. Cells were permeabilised with 0.1% Triton X-100 for 10 min, Triton X-100 was removed, then blocked with 1% BSA in DPBS for 1 hour. Cells were stained with 25 μL anti-BRD9 E4Q3F antibody (CST 48306) diluted 1:25600 in 1% BSA in DPBS for 2-3 hours. Wels were washed twice with DPBS then incubated with 25 μL of 1% BSA containing a 1:1000 dilution of Anti-rabbit Alexa Fluor™ 647 secondary antibody (Thero Scientific A21244) and 1 μg/mL Hoechst nuclear counter stain (Abcam ab228551) for 1 hour. Wells were washed twice with DPBS prior to imaging on a Perkin Elmer Operetta CLS with 10× air lens. Images were processed using Harmony High-Content Imaging and Analysis Software (Perkin Elmer) and the mean contrast ratio of Alexa Fluor™ 647 in central nuclei was used to quantify BRD9 protein levels. Data was further analysed using Dotmatics software and % BRD9 remaining was calculated by normalisation to average data from high and low control wells (cells treated with DMSO or 100 nM CFT-8634 respectively).

Structure (SMILES) | DC50 | Dmax
COc1cc(-c2cn(C)c(=O)c3ccsc23)cc(OC)c1CN1CCC(Oc2cccc3c2CCN(C(=O)/C(C#N)=C/c2cccc(Br)n2)C3C)CC1 (mixture of isomers) [Compound B77] | < 1.25 nM | 40 to 70%
COc1cc(-c2cn(C)c(=O)c(C)c2C)cc(OC)c1C(=O)N1CCC(Oc2cccc(C3CCCN3C(=O)/C(C#N)=C/C(C)(C)C)c2)CC1 (mixture of isomers) [Compound B79, (E/Z)-2-(2-(3-((1-(2,6-dimethoxy-4-(1,4,5-trimethyl-1-oxo-1,6-dihydropyridin-3-yl)benzoyl)piperidin-4-yl)oxy)phenyl)pyrrolidine-1-carbonyl)-4,4-dimethylpent-2-enenitrile] | < 1.25 nM | 70 to 75%
COc1cc(-c2cc(C)c(=O)n(C)c2)cc(OC)c1CN1CCN(Cc2cccc(C3CCCN3C(=O)/C(C#N)=C/C(C)(C)C)c2)CC1 (mixture of isomers) [Compound B81] | < 1.25 nM | > 75%
COc1cc(-c2cn(C)c(=O)c(C)c2C)cc(OC)c1CN1CCC(COc2cccc3c2CCN(C(=O)/C(C#N)=C/C(C)(C)C)C3C)CC1 (mixture of isomers) [Compound B86, (E/Z)-2-(5-((1-(2,6-dimethoxy-4-(1,4,5-trimethyl-6-oxo-1,6-dihydropyridin-3-yl)benzyl)piperidin-4-yl)methoxy)-1-methyl-1,2,3,4-tetrahydroisoquinoline-2-carbonyl)-4,4-dimethylpent-2-enenitrile] | 10 to 25 nM | 40 to 70%
COc1cc(-c2cn(C)c(=O)c(C)c2C)cc(OC)c1CN1CCN(Cc2cccc3c2CCN(C(=O)/C(C#N)=C/c2cnc(C)cn2)C3C)CC1 (mixture of isomers) [Compound B89, (E/Z)-2-(5-((4-(2,6-dimethoxy-4-(1,4,5-trimethyl-6-oxo-1,6-dihydropyridin-3-yl)benzyl)piperazin-1-yl)methyl)-1-methyl-1,2,3,4-tetrahydroisoquinoline-2-carbonyl)-3-(5-methylpyrazin-2-yl)acrylonitrile] | < 1.25 nM | > 75%
COc1cc(-c2cn(C)c(=O)c(C)c2C)cc(OC)c1CN1CCN(Cc2cccc3c2CCN(C(=O)/C(C#N)=C/C2CCCC2)C3C)CC1 (mixture of isomers) [Compound B90, (E/Z)-3-cyclopentyl-2-(5-((4-(2,6-dimethoxy-4-(1,4,5-trimethyl-6-oxo-1,6-dihydropyridin-3-yl)benzyl)piperazin-1-yl)methyl)-1-methyl-1,2,3,4-tetrahydroisoquinoline-2-carbonyl)acrylonitrile] | 10 to 25 nM | 40 to 70%
COc1cc(/C=C(\C#N)C(=O)N2CCc3c(CN4CCN(Cc5c(OC)cc(-c6cn(C)c(=O)c(C)c6C)cc5OC)CC4)cccc3C2C)c(F)cn1 (mixture of isomers) [Compound B92, (E/Z)-2-(5-((4-(2,6-dimethoxy-4-(1,4,5-trimethyl-6-oxo-1,6-dihydropyridin-3-yl)benzyl)piperazin-1-yl)methyl)-1-methyl-1,2,3,4-tetrahydroisoquinoline-2-carbonyl)-3-(5-fluoro-2-methoxypyridin-4-yl)acrylonitrile] | < 1.25 nM | 40 to 70%

The remaining lines, values ahead:

DC50 | Dmax | Structure (SMILES)
1.25 to 10 nM | 40 to 70% | COc1cnc(F)c(/C=C(\C#N)C(=O)N2CCc3c(CN4CCN(Cc5c(OC)cc(-c6cn(C)c(=O)c(C)c6C)cc5OC)CC4)cccc3C2C)c1 (mixture of isomers) [Compound B75, (E/Z)-2-(5-((4-(2,6-dimethoxy-4-(1,4,5-trimethyl-6-oxo-1,6-dihydropyridin-3-yl)benzyl)piperazin-1-yl)methyl)-1-methyl-1,2,3,4-tetrahydroisoquinoline-2-carbonyl)-3-(2-fluoro-5-methoxypyridin-3-yl)acrylonitrile]
1.25 to 10 nM | 40 to 70% | COc1cc(-c2cn(C)c(=O)c(C)c2C)cc(OC)c1CN1CCN(Cc2cccc3c2CCN(C(=O)/C(C#N)=C/C2(C)CCC2)C3C)CC1 (mixture of isomers) [Compound B76, (E/Z)-2-(5-((4-(2,6-dimethoxy-4-(1,4,5-trimethyl-6-oxo-1,6-dihydropyridin-3-yl)benzyl)piperazin-1-yl)methyl)-1-methyl-1,2,3,4-tetrahydroisoquinoline-2-carbonyl)-3-(1-methylcyclobutyl)acrylonitrile]
< 1.25 nM | 40 to 70% | COc1cc(-c2cn(C)c(=O)c(C)c2C)cc(OC)c1C(=O)N1CCN(Cc2cccc3c2CCN(C(=O)/C(C#N)=C/c2cccc(Br)n2)C3C)CC1 (mixture of isomers) [Compound B80, (E/Z)-3-(6-bromopyridin-2-yl)-2-(5-((4-(2,6-dimethoxy-4-(1,4,5-trimethyl-6-oxo-1,6-dihydropyridin-3-yl)benzoyl)piperazin-1-yl)methyl)-1-methyl-1,2,3,4-tetrahydroisoquinoline-2-carbonyl)acrylonitrile]
25 to 1000 nM | 40 to 70% | COc1cc(-c2cn(C)c(=O)c(C)c2C)cc(OC)c1CN1CCN(C(=O)CCCCOc2ccc(C3CCCN3C(=O)/C(C#N)=C/c3nccs3)cc2)CC1 (mixture of isomers) [Compound B82]
1.25 to 10 nM | > 75% | COc1cc(-c2cn(C)c(=O)c(C)c2C)cc(OC)c1CN1CCN(C(=O)COCCOc2ccc3c(c2)C(C)N(C(=O)/C(C#N)=C/c2nccs2)CC3)CC1 (mixture of isomers) [Compound B83, (E/Z)-2-(7-(2-(2-(4-(2,6-dimethoxy-4-(1,4,5-trimethyl-6-oxo-1,6-dihydropyridin-3-yl)benzyl)piperazin-1-yl)-2-oxoethoxy)ethoxy)-1-methyl-1,2,3,4-tetrahydroisoquinoline-2-carbonyl)-3-(thiazol-2-yl)acrylonitrile]
1.25 to 10 nM | > 75% | COc1cc(-c2cn(C)c(=O)c(C)c2C)cc(OC)c1CN1CCN(C(=O)CCCCOc2ccc3c(c2)C(C)N(C(=O)/C(C#N)=C/c2nccs2)CC3)CC1 (mixture of isomers) [Compound B84, (E/Z)-2-(7-((5-(4-(2,6-dimethoxy-4-(1,4,5-trimethyl-6-oxo-1,6-dihydropyridin-3-yl)benzyl)piperazin-1-yl)-5-oxopentyl)oxy)-1-methyl-1,2,3,4-tetrahydroisoquinoline-2-carbonyl)-3-(thiazol-2-yl)acrylonitrile]
10 to 25 nM | 40 to 70% | COc1cc(-c2cn(C)c(=O)c(C)c2C)cc(OC)c1C(=O)N1CCC(Oc2cccc3c2CCN(C(=O)/C(C#N)=C/c2cccc(Br)n2)C3C)CC1 (mixture of isomers) [Compound B88, (E/Z)-3-(6-bromopyridin-2-yl)-2-(5-((1-(2,6-dimethoxy-4-(1,4,5-trimethyl-6-oxo-1,6-dihydropyridin-3-yl)benzoyl)piperidin-4-yl)oxy)-1-methyl-1,2,3,4-tetrahydroisoquinoline-2-carbonyl)acrylonitrile]
1.25 to 10 nM | 40 to 70% | COc1cc(-c2cn(C)c(=O)c(C)c2C)cc(OC)c1CN1CCN(Cc2cccc3c2CCN(C(=O)/C(C#N)=C/c2cccc(F)c2F)C3C)CC1 (mixture of isomers) [Compound B91, (E/Z)-3-(2,3-difluorophenyl)-2-(5-((4-(2,6-dimethoxy-4-(1,4,5-trimethyl-6-oxo-1,6-dihydropyridin-3-yl)benzyl)piperazin-1-yl)methyl)-1-methyl-1,2,3,4-tetrahydroisoquinoline-2-carbonyl)acrylonitrile]
